{"source": "patent US20260374809A1", "about": "“COMPOUNDS USEFUL FOR THE TREATMENT AND/OR CARE OF THE SKIN, HAIR, NAILS AND/OR MUCOUS MEMBRANES” (Lubrizol Advanced Materials, Inc., priority 2022, published 2026)", "key": {"[1]": {"test_system": "EDA-Fn", "experiment": "Myofibroblast marker EDA-Fn by immunofluorescence", "assay_type": "cell-based, human", "conditions": "0.01 mg/ml; basal control = 100.0, MES = 135.7", "experimental": "EDA-Fn is an isoform of fibronectin, which serves as marker for the presence of myofibroblasts.\nAfter the experimental protocol described in EXAMPLE 8, recovery of the cells was performed by the extraction of cells from the 3D culture and their reseeding on glass coverslips. To recover cells, the collagen hydrogel was digested in agitation at 37 °C with a collagenase solution. After the digestion, cycles of centrifugation and washing were performed to eliminate collagen debris. Then, cells were seeded on coverslips in replicated as in the conditions of the 3D cultures of EXAMPLE 8. For future fluorescence analysis, cells were seeded on glass coverslips previously coated with collagen at a density of 3×10^5 fibroblasts/cm^2, let attach overnight and fixed with 4% PFA.\nGlass coverslips were used to perform EDA-Fn immunofluorescence, a marker of myofibroblasts. EDA-Fn immunofluorescence was performed in control samples (with or without MES) and after peptide treatment (PEP-1 0.01 mg/ml). Briefly, cells attached to coverslips were permeabilized by 0.5% Triton X-100 in PBS for 10 minutes at room temperature. Then, blocking solution (4% BSA in PBS) was added for 2 hours. […] Finally, green fluorescence intensity was quantified in Operetta (PerkinElmer) for each condition and normalized by the number of nuclei. […]"}, "[2]": {"test_system": "Musclebind Like Protein 1 (MBNL1)", "experiment": "MBNL1 protein in human dermal fibroblasts (HDFa), immunofluorescence", "assay_type": "cell-based", "conditions": "HDFa cells; for % Fold induction (FI) (MEAN ± SEM), MBNL1 intensity: 24 hours, basal control = 100; for % MME (MEAN ± SEM), comparative MBNL1 intensity with respect to electrical stimulation: MES = 100, control = 0", "experimental": "Musclebind Like Protein 1 (MBNL1) in Human Dermal Fibroblasts (HDF)\nThe aim of this study was to evaluate the increase of MBNL1 protein in human skin fibroblasts after electrical stimulation, mimicking a microcurrent-like treatment. Topical products able to increase MBNL1 protein amount in fibroblast cells, in a similar way to the microcurrent-like treatment, could induce the same antiaging benefits on the skin avoiding the side-effects of physical microcurrent treatment\nCells were seeded at 100.000 cells/well in 12-well plates over sterile glass slides and incubated at 37 °C, 5% CO2 for 48 hours. After that, electrical stimulation was performed. Glass slides were transferred to 6-well plates and were electro-stimulated (1.5V) for 1 hour using a C-dish device (IonOptix™) at room temperature. An identical 6-well plate with non-stimulated cells were incubated at room temperature for 1 hour. After electrostimulation, glass slides were transferred again to a 12-well plate and incubated at 37 °C, 5% CO2 for 24 hours. Three different replicates were used for each condition.\nCells were seeded at 8.000 cells/well in 96-well plates and incubated at 37 °C, 5% CO2 for 48 hours. After the incubation time, cells were treated with PEP-1 (H-Leu-Pro-Val-Thr-OH) at 0.01 mg/ml, 0.1 mg/ml and 0.5 mg/ml for 24 hours. Cells incubated with medium alone were used as a control. Three replicates were carried out for each condition.\nAfter 24 hours of incubation, cells were washed two times with phosphate buffered saline (PBS), fixed with 4% PFA (paraformaldehyde solution) for 15 minutes and washed again two times. After that, cells were permeabilized with 1% X-Triton solution for 15 minutes and blocked with 5% bovine serum albumin (BSA) solution for 1 hour. Cells were incubated with 1/20 dilution of primary antibody against MBNL1 protein (Sigma) in 5% BSA solution for 2 hours. After the incubation time, cells were washed and incubated with 1/200 dilution of secondary antibody (AlexFluor™ 488) in 5% BSA solution for 1 hour. Finally, cells were washed 3 times and stained with 4′,6-Diamidine-2′-phenylindole dihydrochloride (DAPI) mount solution for nuclei detection. MBNL1 protein quantification were measured as fluorescence intensity of MBNL1 normalized by the number of nuclei for each condition using a confocal microscope (Operetta® confocal microscope, PerkinElmer Inc) using Alexa 488 Green channel (Ex: 460-490 nm/Em: 500-550 nm). Results are expressed as an MBNL1 level that is relative to that of the control condition.\nAt least, three independent experiments were analyzed in this assay.\nResults were calculated using the following formula: […]\nFor comparative purposes, the effect of the peptide was compared with that of MES. The effect was calculated as follows: […]"}, "[3]": {"test_system": "Musclebind Like Protein 1 (MBNL1)", "experiment": "MBNL1 protein expression in human skeletal muscle cells (hSKMC), HTRF", "assay_type": "cell-based", "conditions": "0.5 mg/ml, 48 hours, relative to basal control", "experimental": "Musclebind Like Protein 1 (MBNL1) in Human Skeletal Muscle Cells (hSKMC)\nAn increase of MBNL-1 in muscle cells helps maintaining the tone of facial skin muscles. Thus, compounds able to enhance MBNL-1 can be used as a good approach for cosmetic treatment of sagging facial appearance.\nHuman skeletal muscle cells (hSKMC) were cultured at 100,000 cells in T25 flasks with growth medium. After 4 days, cells reached around 80% of confluency and were seeded at 150,000 cells per well in 12-well plates in growth medium. Cells were incubated for 72 hours and then they were changed to differentiation medium and incubated during 48 hours. At the end of this period, cells were treated with defined peptides (0.5 mg/ml) and with medium alone for control conditions during 48 hours in differentiation medium. Cells were also treated with 2 mM of ketoprofen as a positive control.\nAfter the incubation period, cells were lysed and frozen at −80 °C. For total protein quantification protein extract was measured by Bicinchoninic Acid (BCA) method. MBNL1 protein detection was performed by Homogeneous Time Resolved Fluorescence (HTRF) technology. Normalization of MBNL1 levels were performed by total protein quantification for each condition. Results are expressed as a relative MBNL1 protein level respect to control conditions. At least 3 replicates were carried out per condition."}}, "note": "Where a SMILES comes first, the peptide text is derived from it.", "data": [{"compound": "CC(C)C[C@H](N)C(=O)N1CCC[C@H]1C(=O)N[C@H](C(=O)N[C@H](C(=O)O)[C@@H](C)O)C(C)C", "note": "[PEP-1, H-Leu-Pro-Val-Thr-OH] (H-LPVT-OH)", "values": [{"measurement": "Fold induction of EDA-Fn as myofibroblast marker, % Fold induction (FI) MEAN ± SEM", "setting": "[1]", "result": "172.3 ± 14.36", "unit": "%"}, {"measurement": "% Fold induction (FI) (MEAN ± SEM), MBNL1 intensity", "setting": "[2]; 0.01 mg/ml", "result": "106.66 ± 2.65", "unit": "%"}, {"measurement": "% MME (MEAN ± SEM), comparative MBNL1 intensity with respect to electrical stimulation", "setting": "[2]; 0.01 mg/ml", "result": "52.73 ± 2.65", "unit": "%"}, {"measurement": "% Fold induction (FI) (MEAN ± SEM), MBNL1 intensity", "setting": "[2]; 0.1 mg/ml", "result": "107.67 ± 1.62", "unit": "%"}, {"measurement": "% MME (MEAN ± SEM), comparative MBNL1 intensity with respect to electrical stimulation", "setting": "[2]; 0.1 mg/ml", "result": "60.73 ± 1.62", "unit": "%"}, {"measurement": "% Fold induction (FI) (MEAN ± SEM), MBNL1 intensity", "setting": "[2]; 0.5 mg/ml", "result": "109.46 ± 2.68", "unit": "%"}, {"measurement": "% MME (MEAN ± SEM), comparative MBNL1 intensity with respect to electrical stimulation", "setting": "[2]; 0.5 mg/ml", "result": "74.90 ± 2.68", "unit": "%"}, {"measurement": "% MBNL1 vs Basal control", "setting": "[3]", "result": 213.0, "unit": "%"}]}]}
